Measurements: ChEMBL document CHEMBL1151067, “Stereoselectivity in the hydrolysis of synthetic esters by cultured cancer cells and normal tissue extracts of rat” (1994)

What was measured:
[1] = test system: CCRF S-180; test: Stereoselectivity in enzymic hydrolysis by mouse sarcoma S180 cells; assay type: functional
[2] = species: Rattus norvegicus; test: Stereoselectivity in enzymic hydrolysis by normal rat muscle extracts; assay type: functional, Muscle tissue
[3] = species: Rattus norvegicus; test: Stereoselectivity in enzymic hydrolysis by normal rat pancreas extracts; assay type: functional
[4] = test system: NRK-49F; test: Stereoselectivity in enzymic hydrolysis by rat cancer NRK49F cells; assay type: functional
[5] = species: Rattus norvegicus; test: Stereoselectivity in enzymic hydrolysis by normal rat liver extracts; assay type: functional
[6] = test system: XC; test: Stereoselectivity in enzymic hydrolysis by rat cancer XC cells; assay type: functional
[7] = test system: Anr4; test: Stereoselectivity in enzymic hydrolysis by rat cancer Anr4 cells; assay type: functional
[8] = species: Rattus norvegicus; test: Stereoselectivity in enzymic hydrolysis by normal rat kidney extracts; assay type: functional
[9] = test system: MIA PaCa-2; test: Stereoselectivity in enzymic hydrolysis by human cancer MIA PaCa-2 (pancreatic carcinoma) cells; assay type: functional
[10] = test system: ARIP cell line; test: Stereoselectivity in enzymic hydrolysis by rat cancer ARIP cells; assay type: functional
[11] = test system: IA-XsSBR cell line; test: Stereoselectivity in enzymic hydrolysis by rat cancer IA-XsSBR cells; assay type: functional
[12] = species: Rattus norvegicus; test: Stereoselectivity in enzymic hydrolysis by normal rat intestine extracts; assay type: functional
[13] = test system: COLO 320; test: Stereoselectivity in enzymic hydrolysis by human cancer COLO 320 (colon adenocarcinoma) cells; assay type: functional
[14] = test system: U-937; test: Stereoselectivity in enzymic hydrolysis by human cancer U937 (histiocytic lymphoma) cells; assay type: functional
[15] = test system: CCRF S-180; test: Stereoselectivity in enzymic hydrolysis of compound by mouse sarcoma S180 cells; assay type: functional

Row | Compound | Conversion rate [1] [%] | Conversion rate [2] [%] | Conversion rate [3] [%] | Conversion rate [4] [%] | Conversion rate [5] [%] | Conversion rate [6] [%] | Conversion rate [7] [%] | Conversion rate [8] [%] | Conversion rate [9] [%] | Conversion rate [10] [%] | Conversion rate [11] [%] | Conversion rate [12] [%] | Conversion rate [13] [%] | Conversion rate [14] [%] | Conversion rate [15] [%]
1 | CCCCCCCCOC(=O)C(C)c1ccccc1 (stereo not drawn) | 11 | – | – | – | – | – | – | – | – | – | – | – | – | – | –
2 | CCOC(=O)C(C)Oc1ccccc1 (stereo not drawn) | 38.9 | 18 | 33.3 | 4.5 | 52.5 | 23 | 14.2 | 53 | 35.9 | 5.7 | 12.2 | 5 | – | – | –
3 | CCOC(=O)C(NC(C)=O)c1ccccc1 (stereo not drawn) | 4.3 | – | – | – | – | – | – | – | – | – | – | – | – | – | –
4 | CC(C(=O)OCCC1CCCCC1)c1ccccc1 (stereo not drawn) | 6.1 | – | – | – | – | – | – | – | – | – | – | – | – | – | –
5 | CCOC(=O)C(Cc1ccccc1)NC(C)=O (stereo not drawn) | 12.9 | 31.9 | 43.8 | 35.1 | 48.2 | 42 | 30.6 | 23.2 | 42 | 37.2 | 30.5 | 37.3 | 13.8 | 17.5 | –
6 | CCOC(=O)C(O)c1ccccc1 (stereo not drawn) | 21.2 | – | – | – | – | – | – | – | – | – | – | – | – | – | –
7 | CCOC(=O)C(C)c1ccccc1 (stereo not drawn) | – | 1 | 1.2 | 8.2 | 11.5 | 0.6 | 0.5 | 11.2 | 11.9 | 6.9 | 1.4 | 5 | 1.2 | 1.4 | 18.1
8 | CCOC(=O)C(NC=O)c1ccccc1 (stereo not drawn) | 3.6 | 5.9 | 14.3 | 2.2 | 2.7 | 1.2 | 1.2 | 7.6 | – | 1.6 | 1.3 | 1.4 | 3.8 | 3.5 | –
9 | CCOC(=O)C(OC)c1ccccc1 (stereo not drawn) | 4.3 | – | – | – | – | – | – | – | – | – | – | – | – | – | –
